Drawing on PubChem BioAssay (NCI), this text covers TGI and GI50 for five compounds.

Molecules are shown by their SMILES.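 Growth conditions: 96-well plates. Treatment: test compound, 48 hours, 5 concentrations. Analysis: linear interpolation between bracketing concentrations; unreached endpoints set to highest concentration. GI50: concentration for 50% inhibition of growth. The concentration for full growth arrest is given as TGI.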 Where only a bound is given, the exact number is not on record here.

Test systems include IGROV1 ovarian; ACHN renal; CAKI-1 renal; A549 NSCLC; NCI-H522 lung; U251 CNS; TK-10 renal; HL-60(TB) leukemia; SF-295 CNS; EKVX NSCLC.
Test in all cases: NCI tumour cell line growth inhibition, 48 h

As to `CC1CC(=O)C(C(O)CC2CC(=O)N(c3ccccc3)C(=O)C2)C(C)C1` (stereo not given), the TGI in the assay on IGROV1 ovarian, in the assay on ACHN renal, in the assay with CAKI-1 renal, in the assay on A549 NSCLC, in the assay on NCI-H522 lung and with U251 CNS was more than 100 µM in each case. Further, the TGI with TK-10 renal, in the assay with HL-60(TB) leukemia, in the assay on SF-295 CNS and in the assay with EKVX NSCLC was more than 100 µM in each case.

`COc1cc(/C=C2\C(=O)N(c3c(Cl)cccc3Cl)c3ccccc32)cc(OC)c1O`: the GI50 with IGROV1 ovarian is 1.01 µM; in the assay on ACHN renal, 0.59 µM; in the assay on CAKI-1 renal it was 0.455 µM; in the assay with A549 NSCLC, 1.24 µM; in the assay with NCI-H522 lung, 0.501 µM; in the assay on U251 CNS it was 0.315 µM. The GI50 in the assay with TK-10 renal is 1.21 µM; with HL-60(TB) leukemia it was 1.01 µM; in the assay with SF-295 CNS, 0.702 µM; in the assay with EKVX NSCLC it was 5.23 µM. Also, the TGI with IGROV1 ovarian was determined as 15 µM; with ACHN renal, 14.2 µM; in the assay on CAKI-1 renal, 19.1 µM; in the assay with A549 NSCLC, 10.1 µM; in the assay on NCI-H522 lung, 4.01 µM; with U251 CNS, 13.5 µM. Moreover, the TGI in the assay on TK-10 renal turned out to be 15.6 µM; in the assay on HL-60(TB) leukemia, 8.74 µM; in the assay with SF-295 CNS, 16.7 µM; in the assay with EKVX NSCLC it was 25.1 µM.

As for `CC(=O)Nc1ccc(/C=c2\sc3nnc(/C=C/c4ccccc4)n3c2=O)cc1`, the TGI with IGROV1 ovarian, with ACHN renal, in the assay on CAKI-1 renal, with A549 NSCLC, with NCI-H522 lung and in the assay with U251 CNS was more than 50 µM in each case. Moreover, the TGI with TK-10 renal, with HL-60(TB) leukemia, in the assay on SF-295 CNS and in the assay on EKVX NSCLC was more than 50 µM throughout.

`O=S(=O)(Nc1ccc(Cl)c(C(F)(F)F)c1)c1ccc(-c2cnc(C3CC3)o2)cc1`: the GI50 was 0.507 µM in the assay with IGROV1 ovarian; 0.789 µM in the assay with ACHN renal; 0.162 µM with CAKI-1 renal; 0.577 µM in the assay with A549 NSCLC; 0.149 µM with NCI-H522 lung; 0.326 µM with U251 CNS. Further, the GI50 is 1.8 µM in the assay with TK-10 renal, 0.261 µM with HL-60(TB) leukemia, 0.131 µM with SF-295 CNS and 1.34 µM with EKVX NSCLC. The TGI in the assay with IGROV1 ovarian was 5.96 µM; in the assay with ACHN renal, 6.88 µM; in the assay on CAKI-1 renal, 5.75 µM; in the assay on A549 NSCLC, more than 35.6 µM; in the assay with NCI-H522 lung it was 3.25 µM; in the assay on U251 CNS it was 10.9 µM. The TGI with TK-10 renal turned out to be 9.58 µM; with HL-60(TB) leukemia, 1.49 µM; with SF-295 CNS, 2.12 µM; with EKVX NSCLC, 9.29 µM.

Consider `COc1ccc2[nH]cc(/C=C3\C(=O)Nc4ccccc43)c2c1`, for which the GI50 with IGROV1 ovarian is 2.82 µM; with ACHN renal, 5.85 µM; with CAKI-1 renal, 4.12 µM; in the assay with A549 NSCLC it was 4.68 µM; in the assay on NCI-H522 lung, 4.59 µM; with U251 CNS, 6.12 µM. Further, the GI50 was 7.98 µM in the assay with TK-10 renal, 1.78 µM in the assay on HL-60(TB) leukemia, 10.8 µM in the assay with SF-295 CNS and 2.73 µM in the assay on EKVX NSCLC. Moreover, the TGI in the assay on IGROV1 ovarian stood at 16.8 µM; in the assay with ACHN renal, 37.5 µM; in the assay with CAKI-1 renal, 26.4 µM; in the assay with A549 NSCLC, 24.4 µM; with NCI-H522 lung, 19.6 µM; in the assay with U251 CNS, 21.2 µM. The TGI in the assay with TK-10 renal worked out at 31.3 µM; in the assay on HL-60(TB) leukemia, 4.26 µM; with SF-295 CNS, 30 µM; in the assay on EKVX NSCLC, 15.1 µM.
